Reference: patent US12116358B2, “Substituted indoles and methods of use thereof” (EPIZYME, INC., priority 2018, dated 2024)
Like-named read-outs stand apart in the source and are kept apart here.

Assays:
H3K36me3 in A549 cells = test: In-Cell Western (ICW) assay of SETD2 inhibitors (A549 assay); type: cell-based, human; details: A549 cells, read-out: SETD2 A549
In short: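 H3K36me3 In-Cell Western: cells exposed to compound for 3 days at 4,000 cells/well, 37° C. DRAQ5 (1:1000) marked cell number, with 700/800-channel Licor read-out.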

SETD2(1434-1711) = biological target: T1, SETD2(1434-1711) (Homo sapiens, UniProt Q9BYW2); test: SETD2 (1434-1711) assay; type: biochemical; details: read-out: SETD2 (1434-1711)
T1 construct: SETD2 (1434-1711) Assay; catalogue N/A
T1 sequence (Q9BYW2 1434-1711): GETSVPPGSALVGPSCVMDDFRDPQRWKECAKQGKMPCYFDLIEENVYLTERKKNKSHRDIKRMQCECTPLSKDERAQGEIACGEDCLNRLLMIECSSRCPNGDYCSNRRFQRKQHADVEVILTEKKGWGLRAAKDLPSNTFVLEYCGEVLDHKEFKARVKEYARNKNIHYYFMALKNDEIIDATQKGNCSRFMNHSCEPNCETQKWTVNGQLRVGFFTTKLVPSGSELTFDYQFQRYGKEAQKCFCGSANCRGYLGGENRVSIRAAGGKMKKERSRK

Row | SMILES | IC50 (H3K36me3 in A549 cells) [nM] | IC50 (SETD2(1434-1711)) [nM] | IC50 (H3K36me3 in A549 cells; Homo sapiens) [nM]
1 | Cc1ccc(F)c2cc(C(=O)Nc3cc(F)cc(N4CCN(C(=O)C(C)N(C)C)CC4)c3)[nH]c12 (centres unmarked) [compound 43] | 100 | 7 | 
2 | Cc1ccc(F)c2cc(C(=O)Nc3cccc([C@H]4CC[C@H](N(C)C)CC4)c3)[nH]c12 [compound 68] | 200 | 6 | 
3 | Cc1ccc(F)c2cc(C(=O)Nc3cccc(N4CC5CC4CN5C)c3)[nH]c12 (centres unmarked) [compound 348] | 1900 | 70 | 
4 | Cc1cccc2cc(C(=O)NC(C)c3ccccc3Cl)[nH]c12 (centres unmarked) [compound 1156] | 19700 | 2100 | 
5 | Cc1cc(C(=O)NC2CCN(C)CC2)cnc1C(NC(=O)c1cc2cccc(C)c2[nH]1)C1CC1 (centres unmarked) [compound 470] |  | 600 | 8000
6 | Cc1ccc(F)c2cc(C(=O)Nc3cc(F)cc(N4CCC(N5CCN6C(=O)N(C)CC6C5)C4)c3)[nH]c12 (centres unmarked) [compound 2] | 30 | 5 | 
7 | Cc1ccc(F)c2cc(C(=O)N[C@@H]3CCC[C@H](N4CCn5c(n[nH]c5=O)C4)C3)[nH]c12 [compound 1058] |  | 40 | 600
8 | Cc1ccc(F)c2cc(C(=O)Nc3cccc(N4CCNCC4=O)c3)[nH]c12 [compound 321] |  | 200 | 1500
9 | Cc1cccc2cc(C(=O)Nc3cccc(N4CCN(S(=O)(=O)CCN)CC4)n3)[nH]c12 [compound 443] |  | 600 | 5100
10 | Cc1ccc(F)c2cc(C(=O)Nc3cccc(N4CCOC(C)C4)c3)[nH]c12 (centres unmarked) [compound 129] |  | 60 | 300
11 | Cc1ccc(F)c2cc(C(=O)Nc3cc(F)cc(N4CCC(N5CCN(C(=O)CN(C)C)CC5)C4)c3)[nH]c12 (centres unmarked) [compound 39] | 90 | 4 | 
12 | Cc1ccc(F)c2cc(C(=O)N[C@@H]3CCC[C@H](N4CCC(N(C)C)C4=O)C3)[nH]c12 (some centres unmarked) [compound 1002] |  | 1200 | 1800
13 | CC(=O)N(C)C1CCN(c2cccc(NC(=O)c3cc4c(F)ccc(C)c4[nH]3)c2)CC1 [compound 78] | 200 | 40 | 
14 | Cc1cc(Cn2ccnc2)cnc1C(NC(=O)c1cc2c(F)ccc(C)c2[nH]1)C1CC1 (centres unmarked) [Cpd. No. 161, N-((5-((1H-imidazol-1-yl)methyl)-3-methylpyridin-2-yl)(cyclopropyl)methyl)-4-fluoro-7-methyl-1H-indole-2-carboxamide] |  | 30 | 300
15 | CCN(CC)CCC(=O)N[C@H]1CC[C@H](NC(=O)c2cc3cccc(C)c3[nH]2)CC1 [compound 589] |  | 43600 | > 25000
16 | Cc1cccnc1C(CCCN1CCNCC1)NC(=O)c1cc2cccc(C)c2[nH]1 (centres unmarked) [compound 567] |  | 13600 | > 25000
17 | Cc1ccc(F)c2cc(C(=O)Nc3cccc(-c4ccnn4C)c3)[nH]c12 [compound 239] | 600 | 200 | 
18 | Cc1ccc(F)c2cc(C(=O)Nc3cccc(-n4cncn4)c3)[nH]c12 [compound 162] |  | 90 | 300
19 | Cc1cccnc1C(Cc1cnn(C)c1)NC(=O)c1cc2c(F)ccc(C)c2[nH]1 (centres unmarked) [Cpd. No. 85, 4-fluoro-7-methyl-N-(2-(1-methyl-1H-pyrazol-4-yl)-1-(3-methylpyridin-2-yl)ethyl)-1H-indole-2-carboxamide] |  | 40 | 200
20 | CC(=O)N1[C@H](C)CN([C@@H]2CCC[C@@H](NC(=O)c3cc4c(F)ccc(C)c4[nH]3)C2)C[C@@H]1C [compound 1096] |  | 2400 | > 2000

Row | SMILES | IC50 (H3K36me3 in A549 cells) [nM] | IC50 (SETD2(1434-1711)) [nM] | IC50 (H3K36me3 in A549 cells; Homo sapiens) [nM]
21 | Cc1ccc(F)c2cc(C(=O)Nc3cccc(N4CCn5cnnc5C4)c3)[nH]c12 [compound 328] |  | 40 | 1600
22 | Cc1ccc(F)c2cc(C(=O)Nc3cccc(N4CCC(N5CCN(C)CC5)CC4)c3)[nH]c12 [compound 152] |  | 10 | 300
23 | COCC(=O)N(C)[C@@H]1CCN([C@H]2CCC[C@@H](NC(=O)c3cc4c(F)ccc(C)c4[nH]3)C2)C1 [compound 1042] |  | 20 | 200
24 | Cc1cc(C(=O)N[C@H]2CC[C@@H]2N)cnc1C(NC(=O)c1cc2cccc(C)c2[nH]1)C1CC1 (some centres unmarked) [compound 573] |  | 16900 | > 25000
25 | Cc1ccc(F)c2cc(C(=O)Nc3cccc(-c4nnc(CN(C)C)s4)c3)[nH]c12 [compound 132] |  | 50 | 300
26 | Cc1ccc(F)c2cc(C(=O)Nc3cc(N4CCN(C)CC4)c4ncccc4c3)[nH]c12 [compound 350] |  | 80 | > 2000
27 | Cc1cccc2cc(C(=O)Nc3cccc(N4CCC(NCCN)CC4)n3)[nH]c12 [compound 531] |  | 200 | > 25000
28 | Cc1ccc(F)c2cc(C(=O)N[C@@H]3CCC[C@@H](N4CCN(C(=O)C5COC5)CC4)C3)[nH]c12 [compound 919] |  | 900 | > 2000
29 | Cc1cccc2cc(C(=O)Nc3cccc(N4CCC(NCCN)CC4)c3)[nH]c12 [compound 452] |  | 60 | 5700
30 | Cc1ccc(F)c2cc(C(=O)Nc3cccc(-c4cc(N)n[nH]4)c3)[nH]c12 [compound 444] | 5200 | 400 | 
31 | Cc1ccc(F)c2cc(C(=O)NC(C(=O)NCc3ccccc3)c3ccccn3)[nH]c12 (centres unmarked) [compound 550] | > 25000 | 6500 | 
32 | Cc1cccc2cc(C(=O)Nc3ccc4nc(CN(C)C)cn4c3)[nH]c12 [compound 546] |  | 3900 | > 25000
33 | Cc1cccc2cc(C(=O)Nc3cccc(N4CCN(S(=O)(=O)CCN)CC4)c3)[nH]c12 [compound 449] |  | 200 | 5500
34 | Cc1ccc(F)c2cc(C(=O)Nc3cccc(N4CCC5(CCN(CC(F)F)C5)CC4)c3)[nH]c12 [compound 206] | 400 | 90 | 
35 | Cc1ccc(F)c2cc(C(=O)Nc3cccc(N4CCN(C(=O)C5CC5)CC4)c3)[nH]c12 [compound 93] | 200 | 60 | 
36 | CC(=O)N1CCN(C2CCCC(NC(=O)c3cc4c(F)ccc(C)c4[nH]3)C2)CC1C (centres unmarked) [compound 968] | > 2000 | 1900 | 
37 | Cc1ccc(F)c2cc(C(=O)N[C@@H]3CCC[C@H](N4CC[C@H](N(CCO)S(C)(=O)=O)C4)C3)[nH]c12 [compound 1061] |  | 20 | 300
38 | Cc1ccc(F)c2cc(C(=O)Nc3cccc(N4CCN(C(=O)C5CCCN(C)C5)CC4)c3)[nH]c12 (centres unmarked) [compound 138] |  | 10 | 300
39 | Cc1ccc(F)c2cc(C(=O)Nc3cccc(CCN)c3)[nH]c12 [compound 418] | 3400 | 100 | 
40 | CC(=O)N1CCCC(c2cccc(NC(=O)c3cc4c(F)ccc(C)c4[nH]3)c2)C1 (centres unmarked) [compound 123] |  | 50 | 300

Row | SMILES | IC50 (H3K36me3 in A549 cells) [nM] | IC50 (SETD2(1434-1711)) [nM] | IC50 (H3K36me3 in A549 cells; Homo sapiens) [nM]
41 | Cc1ccc(F)c2cc(C(=O)Nc3cccc(N4CC[C@H](N(C)C)[C@H](C)C4)c3)[nH]c12 [compound 111] | 200 | 8 | 
42 | Cc1ccc(F)c2cc(C(=O)Nc3cccc(N4CCN5C(=O)N(C)CC5C4)c3)[nH]c12 (centres unmarked) [compound 54] |  | 30 | 100
43 | Cc1cccnc1C(NC(=O)c1cc2cccc(C)c2[nH]1)C1CCC1 (centres unmarked) [compound 513] | 17400 | 4000 | 
44 | Cc1ccc(F)c2cc(C(=O)N[C@@H]3CCC[C@H](c4noc(CN(C)C)n4)C3)[nH]c12 [compound 1014] |  | 200 | 700
45 | CC(=O)N1CCN([C@H]2CCC[C@@H](NC(=O)c3cc4c(F)ccc(C)c4[nH]3)C2)C[C@H]1C [compound 930] |  | 4 | 10
46 | Cc1ccc(F)c2cc(C(=O)Nc3cccc(N4CCOC5(CC5)C4)c3)[nH]c12 [compound 287] |  | 200 | 1000
47 | CC(=O)N1CCC(C2CCCC(NC(=O)c3cc4c(F)ccc(C)c4[nH]3)C2)CC1 (centres unmarked) [compound 1124] | 800 | 200 | 
48 | Cc1ccc(F)c2cc(C(=O)Nc3cccc(-c4cc(N)on4)c3)[nH]c12 [compound 502] | 14700 | 500 | 
49 | CC(=O)N1CCN(C2COCC(NC(=O)c3cc4c(F)ccc(C)c4[nH]3)C2)CC1 (centres unmarked) [compound 363] | > 2000 | 1500 | 
50 | Cc1ccc(F)c2cc(C(=O)Nc3cccc(N4CC[C@H](N(C)C)C4)c3)[nH]c12 [compound 102] | 200 | 20 | 
51 | CCC(=O)N1CCN([C@H]2CCC[C@@H](NC(=O)c3cc4c(F)ccc(C)c4[nH]3)C2)CC1 [compound 839] | 40 | 10 | 
52 | Cc1ccc(F)c2cc(C(=O)Nc3cccc(-c4n[nH]c(=O)[nH]4)c3)[nH]c12 [compound 532] | > 25000 | 200 | 
53 | Cc1ccc(F)c2cc(C(=O)Nc3cccc(N4CCC(CCCN)CC4)c3)[nH]c12 [compound 150] |  | 20 | 300
54 | Cc1ccc(F)c2cc(C(=O)Nc3cccc(N4CCn5ccnc5C4)c3)[nH]c12 [compound 233] | 500 | 50 | 
55 | Cc1ccc(N2CCN(C)CC2)cc1NC(=O)c1cc2cccc(C)c2[nH]1 [compound 469] |  | 1400 | 7900
56 | Cc1cccnc1C(Cc1ccccc1)NC(=O)c1cc2cccc(C)c2[nH]1 (centres unmarked) [compound 408] |  | 400 | 2900
57 | Cc1ccc(F)c2cc(C(=O)Nc3cccc(-c4nnc(N)[nH]4)c3)[nH]c12 [compound 524] | 20900 | 1500 | 
58 | Cc1ccc(N2CCN(C)CC2)cc1NC(=O)c1cc2c(F)ccc(C)c2[nH]1 [compound 407] | 2800 | 300 | 
